Test results taken from the supplement of paper PMC10307832.

How the values were obtained:
Assay in all cases: relative viability (nuclei count vs DMSO), 5 days (fraction); higher = more cells survive
Etoposide + Bortezomib = compound: COc1cc([C@@H]2c3cc4c(cc3[C@@H](O[C@@H]3O[C@@H]5CO[C@@H](C)O[C@H]5[C@H](O)[C@H]3O)[C@H]3COC(=O)[C@H]23)OCO4)cc(OC)c1O [Etoposide] + CC(C)C[C@H](NC(=O)[C@H](Cc1ccccc1)NC(=O)c1cnccn1)B(O)O [Bortezomib] (partner 0.002 µM)
How it was run: (§1)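 Values are medians from duplicate plates. Each reflects relative viability, defined as the nuclei count of treated wells over that of vehicle wells. Lung cancer cell lines in 1536-well plates were pin-tool dosed one day after seeding with one drug alone or with a fixed anchor-drug dose plus five library-drug doses (not always all listed) in √10 steps, then fixed, stained and imaged at 4× after 5 days.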

Etoposide + Olaparib = compound: COc1cc([C@@H]2c3cc4c(cc3[C@@H](O[C@@H]3O[C@@H]5CO[C@@H](C)O[C@H]5[C@H](O)[C@H]3O)[C@H]3COC(=O)[C@H]23)OCO4)cc(OC)c1O [Etoposide] + O=C(c1cc(Cc2n[nH]c(=O)c3ccccc23)ccc1F)N1CCN(C(=O)C2CC2)CC1 [Olaparib] (partner 8 µM)
How it was run: as §1

Etoposide + Crizotinib = compound: COc1cc([C@@H]2c3cc4c(cc3[C@@H](O[C@@H]3O[C@@H]5CO[C@@H](C)O[C@H]5[C@H](O)[C@H]3O)[C@H]3COC(=O)[C@H]23)OCO4)cc(OC)c1O [Etoposide] + C[C@@H](Oc1cc(-c2cnn(C3CCNCC3)c2)cnc1N)c1c(Cl)ccc(F)c1Cl [Crizotinib] (partner 1 µM)
How it was run: as §1

Etoposide + Decitabine = compound: COc1cc([C@@H]2c3cc4c(cc3[C@@H](O[C@@H]3O[C@@H]5CO[C@@H](C)O[C@H]5[C@H](O)[C@H]3O)[C@H]3COC(=O)[C@H]23)OCO4)cc(OC)c1O [Etoposide] + Nc1ncn([C@H]2C[C@H](O)[C@@H](CO)O2)c(=O)n1 [Decitabine] (partner 2 µM)
How it was run: as §1

Cell Line: UMC-11
- relative viability (Etoposide + Bortezomib; first compound 0.01 µM): 0.685
- relative viability (Etoposide + Bortezomib; first compound 0.03162 µM): 0.777
- relative viability (Etoposide + Bortezomib; first compound 0.3162 µM): 0.389
- relative viability (Etoposide + Bortezomib; first compound 1 µM): 0.187
- relative viability (Etoposide + Olaparib; first compound 0.01 µM): 0.326
- relative viability (Etoposide + Olaparib; first compound 0.03162 µM): 0.331
- relative viability (Etoposide + Olaparib; first compound 0.1 µM): 0.311
- relative viability (Etoposide + Olaparib; first compound 0.3162 µM): 0.27
- relative viability (Etoposide + Olaparib; first compound 1 µM): 0.28
- relative viability (Etoposide + Crizotinib; first compound 0.01 µM): 0.703
- relative viability (Etoposide + Crizotinib; first compound 0.03162 µM): 0.573
- relative viability (Etoposide + Crizotinib; first compound 0.3162 µM): 0.241
- relative viability (Etoposide + Crizotinib; first compound 1 µM): 0.146
- relative viability (Etoposide + Decitabine; first compound 0.01 µM): 0.462
- relative viability (Etoposide + Decitabine; first compound 0.03162 µM): 0.621
- relative viability (Etoposide + Decitabine; first compound 0.1 µM): 0.355
- relative viability (Etoposide + Decitabine; first compound 0.3162 µM): 0.356
- relative viability (Etoposide + Decitabine; first compound 1 µM): 0.319
